The values that follow come from patent publication US12624023B2, “Sulfonylurea derivatives and uses thereof” (NodThera Limited, priority 2019, dated 2026).

Broadly, the IC50 is the point on the concentration scale where inhibition reaches its midpoint.

In experiment [1] the test system is IL-1β release upon NLRP3 activation in human whole blood. The experiment in a line: Whole blood (WB) assay (IL-1β release, LPS priming + ATP stimulation, HTRF). It counts as cell-based. Conditions: heparin, diluted 9:5 with media, LPS 1 μg/ml 3 h, compound 30 min, ATP 5 mM 1 h, IL-1β by HTRF. The protocol: The compounds of the present disclosure were tested for their inhibitory activity against IL-1β release upon NLRP3 activation in human whole blood.
Whole blood was drawn from single healthy donors and treated with sodium heparin anticoagulant. Blood was diluted with cell culture media at a 9:5 ratio, seeded in a 96-well plate and incubated for 3 h with lipopolysaccharide (LPS, 1 μg/ml final concentration diluted 1000× from a 1 mg/ml stock solution). The compounds of the present disclosure were added (a single compound concentration per well) and the blood was incubated for 30 min. Next, the blood was stimulated with ATP (5 mM final concentration diluted 20× from a 100 mM stock solution) for 1 h and the cell culture media from the wells were collected for further analysis.
The release of IL-1β into the media was determined by quantitative detection of IL-1β in the media using HTRF®, CisBio cat. No. 62HIL1BPEH. Briefly, cell culture supernatant were diluted as appropriate to bring IL-1β levels within the HTRF® detection range ([…]) and subsequently dispensed into the assay plate containing antibodies labelled with the HTRF® donor and acceptor. A microplate spectrophotometer (BMG) was used to detect signals at 655 nm and 620 nm.
In general terms: TR-FRET usually uses a lanthanide donor and a delayed reading to cut background.

The subject of experiment [2] is IL-1β release upon NLRP3 activation in peripheral blood mononuclear cells (PBMC). The experiment in a line: PBMC IC50 determination assay (IL-1β release, LPS priming + ATP stimulation, HTRF). It counts as cell-based. Conditions: PBMC from buffy coats; LPS 1 μg/ml 3 h, compound 30 min, ATP 5 mM 1 h; IL-1β by HTRF. How it is done:
The compounds of the present disclosure were tested for their inhibitory activity against IL-1β release upon NLRP3 activation in peripheral blood mononuclear cells (PBMC).
PBMC were isolated from buffy coats by density gradient centrifugation on Histopaque-1077 (Sigma, cat no. 10771). Isolated cells were seeded into the wells (280,000 cells/well) of a 96-well plate and incubated for 3 h with lipopolysaccharide (LPS, 1 μg/ml diluted 1000× from a 1 mg/ml stock solution). The compounds of the present disclosure were added (a single compound per well) and the cells were incubated for 30 min. Next, the cells were stimulated with ATP (5 mM final concentration diluted 20× from a 100 mM stock solution) for 1 h and the cell culture media from the wells were collected for further analysis.
The release of IL-1β into the media was determined by quantitative detection of IL-1β in the media using HTRF®, CisBio cat. No. 62HIL1BPEH. Briefly, cell culture supernatant were dispensed directly into the assay plate containing antibodies labelled with the HTRF® donor and acceptor. A microplate spectrophotometer (BMG) was used to detect signals at 655 nm and 620 nm. The detection range of IL-1β HTRF® was […].

In the case of `CCc1cc(NC(=O)NS(=O)(=O)N(C2CCOC2)C2CCCN(C)C2)c(CC)s1` (stereo not shown) [Compound 69, 3-(2,5-Diethylthiophen-3-yl)-1-[(1-methylpiperidin-3-yl)(oxolan-3-yl)-sulfamoyl]urea], the IC50 in experiment [1] is above 20000 nM; in experiment [2], above 10000 nM.

As to `CC(C)c1sc2c(c1NC(=O)NS(=O)(=O)N(c1cnn(C)c1)[C@@H]1CCCN(C)C1)CCC2` [Compound 70, 1-[(1-Methyl-1H-pyrazol-4-yl)[(3R)-1-methylpiperidin-3-yl]sulfamoyl]-3-[2-(propan-2-yl)-4H,5H,6H-cyclopenta[b]thiophen-3-yl]urea], the results for the IC50 in experiment [1] and in experiment [2] were below 1000 nM and 100 to 500 nM, respectively.

In the case of `CCc1cc(NC(=O)NS(=O)(=O)N(c2cnn(C(C)C)c2)[C@@H]2CCCN(C)C2)c(CC)o1` [Compound 71, 3-(2,5-Diethylfuran-3-yl)-1-{[(3R)-1-methylpiperidin-3-yl][1-(propan-2-yl)-1H-pyrazol-4-yl]sulfamoyl}urea], the IC50 in experiment [1] fell in the range of 1000 to 3000 nM; in experiment [2] it was 100 to 500 nM.

Take `CC(C)c1cc(NC(=O)NS(=O)(=O)N(c2cnn(C)c2)C2CCCN(C)C2)c(C(C)C)o1` (stereo not shown) [Compound 73, 3-[2,5-Bis(propan-2-yl)furan-3-yl]-1-[(1-methyl-1H-pyrazol-4-yl)(1-methylpiperidin-3-yl)sulfamoyl]urea]: the figures for the 50% inhibitory concentration (IC50) in experiment [1] and in experiment [2] were below 1000 nM and below 100 nM, respectively.

Turning to `CC(C)c1cc(NC(=O)NS(=O)(=O)N(CCN(C)C)c2cnn(C)c2)c(C(C)C)o1` [Compound 75, 3-[2,5-Bis(propan-2-yl)furan-3-yl]-1-{[2-(dimethylamino)ethyl](1-methyl-1H-pyrazol-4-yl)sulfamoyl}urea], the IC50 was 3000 to 10000 nM in experiment [1] and 100 to 500 nM in experiment [2].

With `CC(C)c1cc(NC(=O)NS(=O)(=O)N(c2cnn(C)c2)[C@@H]2C[C@H](F)CN(C)C2)c(C(C)C)s1` [Compound 76, 3-[2,5-Bis(propan-2-yl)thiophen-3-yl]-1-{[(3R,5S)-5-fluoro-1-methylpiperidin-3-yl](1-methyl-1H-pyrazol-4-yl)sulfamoyl}urea], the half-maximal inhibitory concentration (IC50) in experiment [1] fell in the range of 3000 to 10000 nM; in experiment [2], 100 to 500 nM.

Regarding `CCc1sc2c(c1NC(=O)NS(=O)(=O)N(c1cnn(C)c1)C1CCCN(C)C1)CCC2` (stereo not shown) [Compound 77, 3-{2-Ethyl-4H,5H,6H-cyclopenta[b]thiophen-3-yl}-1-[(1-methyl-1H-pyrazol-4-yl)(1-methylpiperidin-3-yl)sulfamoyl]urea], the concentration for half-maximal inhibition (IC50) in experiment [1] is below 1000 nM; in experiment [2], below 100 nM.

With `CCc1oc(C(C)C)cc1NC(=O)NS(=O)(=O)N(c1cnn(C)c1)C1CCCN(C)C1` (stereo not shown) [Compound 78, 3-[2-Ethyl-5-(propan-2-yl)furan-3-yl]-1-[(1-methyl-1H-pyrazol-4-yl)(1-methyl-piperidin-3-yl)sulfamoyl]urea], the IC50 in experiment [1] was 1000 to 3000 nM; in experiment [2], 500 to 1000 nM.

As for `CCc1cc(NC(=O)NS(=O)(=O)N(c2cnn(C)c2)C2CCCN(C)C2)c(C(C)C)o1` (stereo not shown) [Compound 79, 3-[5-Ethyl-2-(propan-2-yl)furan-3-yl]-1-[(1-methyl-1H-pyrazol-4-yl)(1-methyl-piperidin-3-yl)sulfamoyl]urea], the IC50 is below 1000 nM in experiment [1] and below 100 nM in experiment [2].

For the compound `CC(C)c1sc(Cl)cc1NC(=O)NS(=O)(=O)N(c1cnn(C)c1)[C@H]1CCCN(C)C1` [Compound 80, 3-[5-Chloro-2-(propan-2-yl)thiophen-3-yl]-1-[(1-methyl-1H-pyrazol-4-yl)[(3S)-1-methylpiperidin-3-yl]sulfamoyl]urea], the half-inhibitory concentration (IC50) in experiment [1] was below 1000 nM; in experiment [2] it was below 100 nM.

Regarding `Cc1cc(NC(=O)NS(=O)(=O)N(c2cnn(C)c2)[C@H]2CCCN(C)C2)c(C(C)C)s1` [Compound 81, 1-[(1-Methyl-1H-pyrazol-4-yl)[(3S)-1-methylpiperidin-3-yl]sulfamoyl]-3-[5-methyl-2-(propan-2-yl)thiophen-3-yl]urea], the IC50 was below 1000 nM in experiment [1] and below 100 nM in experiment [2].

For the compound `CC(C)c1cc(NC(=O)NS(=O)(=O)N(c2cnn(C)c2)[C@@H]2C[C@@H](F)CN(C)C2)c(C(C)C)s1` [Compound 82, 3-[2,5-Bis(propan-2-yl)thiophen-3-yl]-1-{[(3R,5R)-5-fluoro-1-methylpiperidin-3-yl](1-methyl-1H-pyrazol-4-yl)sulfamoyl}urea], the figures for the IC50 in experiment [1] and in experiment [2] were 1000 to 3000 nM and below 100 nM, respectively.

Regarding `CC(C)c1cc(NC(=O)NS(=O)(=O)N(CCN(C)C)c2cnn(C(C)C)c2)c(C(C)C)o1` [Compound 83, 1-[2,5-Bis(propan-2-yl)furan-3-yl]-3-{[2-(dimethylamino)ethyl][1-(propan-2-yl)-1H-pyrazol-4-yl]sulfamoyl}urea], the 50% inhibitory concentration (IC50) in experiment [1] was 1000 to 3000 nM; in experiment [2], 100 to 500 nM.

In the case of `CC(C)c1cc(NC(=O)NS(=O)(=O)N(c2cnn(C(C)C)c2)[C@H]2CCCN(C)C2)c(C(C)C)s1` [Compound 84, 3-[2,5-Bis(propan-2-yl)thiophen-3-yl]-1-{[(3S)-1-methylpiperidin-3-yl][1-(propan-2-yl)-1H-pyrazol-4-yl]sulfamoyl}urea], the IC50 in experiment [1] is below 1000 nM; in experiment [2], below 100 nM.

For `CC(C)c1sc2c(c1NC(=O)NS(=O)(=O)N(c1cnn(C)c1)[C@H]1CCCN(C)C1)CCC2` [Compound 85, 1-[(1-Methyl-1H-pyrazol-4-yl)[(3S)-1-methylpiperidin-3-yl]sulfamoyl]-3-[2-(propan-2-yl)-4H,5H,6H-cyclopenta[b]thiophen-3-yl]urea], the IC50 was below 1000 nM in experiment [1] and below 100 nM in experiment [2].

With `CCc1sc2c(c1NC(=O)NS(=O)(=O)N(c1cnn(C)c1)C1CCCN(C)C1)CCCC2` (stereo not shown) [Compound 86, 3-(2-Ethyl-4,5,6,7-tetrahydro-1-benzothiophen-3-yl)-1-[(1-methyl-1H-pyrazol-4-yl)(1-methylpiperidin-3-yl)sulfamoyl]urea], the IC50 fell in the range of 1000 to 3000 nM in experiment [1] and 100 to 500 nM in experiment [2].

In the case of `CCc1cc(NC(=O)NS(=O)(=O)N(c2cnn(C(C)C)c2)[C@H]2CCCN(C)C2)c(CC)o1` [Compound 87, 3-(2,5-Diethylfuran-3-yl)-1-{[(3S)-1-methylpiperidin-3-yl][1-(propan-2-yl)-1H-pyrazol-4-yl]sulfamoyl}urea], the figures for the IC50 in experiment [1] and in experiment [2] were 1000 to 3000 nM and 100 to 500 nM, respectively.

Consider `CCc1cc(NC(=O)NS(=O)(=O)N(c2cnn(C)c2)[C@H]2CCCN(C)C2)c(C(C)C)s1` [Compound 88, 3-[5-Ethyl-2-(propan-2-yl)thiophen-3-yl]-1-[(1-methyl-1H-pyrazol-4-yl)[(3S)-1-methylpiperidin-3-yl]sulfamoyl]urea], for which the IC50 in experiment [1] was below 1000 nM; in experiment [2], below 100 nM.

On to `CCc1sc(C(C)C)cc1NC(=O)NS(=O)(=O)N(c1cnn(C)c1)[C@H]1CCCN(C)C1` [Compound 89, 3-[2-Ethyl-5-(propan-2-yl)thiophen-3-yl]-1-[(1-methyl-1H-pyrazol-4-yl)[(3S)-1-methylpiperidin-3-yl]sulfamoyl]urea], for which the IC50 in experiment [1] was 1000 to 3000 nM; in experiment [2], below 100 nM.

For the compound `Cc1sc(C(C)C)cc1NC(=O)NS(=O)(=O)N(c1cnn(C)c1)[C@H]1CCCN(C)C1` [Compound 90, 1-[(1-Methyl-1H-pyrazol-4-yl)[(3S)-1-methylpiperidin-3-yl]sulfamoyl]-3-[2-methyl-5-(propan-2-yl)thiophen-3-yl]urea], the 50% inhibitory concentration (IC50) in experiment [1] lay in the range of 1000 to 3000 nM; in experiment [2], 100 to 500 nM.

For `CC(C)c1cc(NC(=O)NS(=O)(=O)N(c2cnn(C3CC3)c2)[C@H]2CCCN(C)C2)c(C(C)C)s1` [Compound 91, 3-[2,5-Bis(propan-2-yl)thiophen-3-yl]-1-[(1-cyclopropyl-1H-pyrazol-4-yl)[(3S)-1-methylpiperidin-3-yl]sulfamoyl]urea], the figures for the half-inhibitory concentration (IC50) in experiment [1] and in experiment [2] were below 1000 nM and below 100 nM, respectively.

Turning to `CC(C)c1cc(NC(=O)NS(=O)(=O)N(c2cnn(C)c2)[C@H]2C[C@H](F)CN(C)C2)c(C(C)C)s1` [Compound 92, 3-[2,5-Bis(propan-2-yl)thiophen-3-yl]-1-{[(3S,5S)-5-fluoro-1-methylpiperidin-3-yl](1-methyl-1H-pyrazol-4-yl)sulfamoyl}urea], the IC50 in experiment [1] is below 1000 nM; in experiment [2], below 100 nM.

As to `CC(C)c1cc(NC(=O)NS(=O)(=O)N(c2cnn(C)c2)C2CN(C)CC(F)(F)C2)c(C(C)C)s1` (stereo not shown) [Compound 93, 3-[2,5-Bis(propan-2-yl)thiophen-3-yl]-1-[(5,5-difluoro-1-methylpiperidin-3-yl)(1-methyl-1H-pyrazol-4-yl)sulfamoyl]urea], the IC50 in experiment [1] is 3000 to 10000 nM; in experiment [2], 100 to 500 nM.
